Test: Stability study at 40° C./75% RH (appearance; potency by HPLC)
Assay type: physicochemical
Method: All the vials were sealed with HPLC vial cap. The Time 0 samples were in −20° C. freezer and all other samples in 40° C./75% RH chamber. […] After appropriate dilution, analyzed the samples by HPLC according to the method below:
The standard stock solution of Compound 1 was prepared by dissolving 1.18 mg Compound 1 with 25 ml mixture of acetonitrile and water (acetonitrile:water=1:1). The stock solution was serially further diluted with a dilution factor of 2 to obtain a standard calibration curve.

Physical state on storage (40° C./75% RH, 12 weeks): became an oil
Physical state on storage (40° C./75% RH, within hours): turns into oil
Appearance (Day 1, 40° C./75% RH): Oil
Appearance (Time 0, sample kept in −20° C. freezer): White
Appearance (Week 1, 40° C./75% RH): Oil
Appearance (Week 2, 40° C./75% RH): Oil
Appearance (Week 4, 40° C./75% RH): Oil
Appearance (Week 8, 40° C./75% RH): Oil
Appearance (Week 12, 40° C./75% RH): Oil
Potency loss (end of the 12-week study, 40° C./75% RH, HPLC): about 20%
Compound: NC(=O)CCC/C=C\C[C@@H]1[C@@H](/C=C/[C@@H](O)CCc2cc(Cl)sc2Cl)[C@H](O)C[C@@H]1O [Compound 1, (Z)-7-((1R,2R,3R,5S)-2-((S,E)-5-(2,5-dichlorothiophen-3-yl)-3-hydroxypent-1-en-1-yl)-3,5-dihydroxycyclopentyl)hept-5-enamide]

Source: patent US10765629B2 (Allergan, Inc., priority 2017, dated 2020)
